{
  "source": "patent US5411943A",
  "about": "“Hepatoma treatment with somatostatin analogs” (Biomeasure, Inc., priority 1992, dated 1995)",
  "key": {"[1]": {"test_system": "M5123 hepatoma", "assay": "Subcutaneous tumor assay, M5123 hepatoma implanted s.c. in Buffalo strain rats", "type": "in vivo, rat", "conditions": "for Final Tumor Size Day 15 / Percent Test/Control: 500 μg analog/inj.; for Final Tumor Size Day 15: mean ± S.D.; for Percent Test/Control: day 15", "excerpt": "(§1) The M5123 hepatoma cells, obtained from Dr. H. P. Morris at the National Cancer Institute, were induced in the Buffalo strain of rats by ingestion of N-(2-fluorenylphthalamic acid) and established in serial transplantation. Implantation of the M5123 hepatoma cells in an immunodeficient athymic mouse or Buffalo strain rat reproducibly results in a progressively growing, lethal tumor.\n(§2) To determine the growth inhibitory effect of bombesin analogs on hepatoma cells, two in vivo assay systems, the subcutaneous tumor assay in the syngeneic Buffalo strain rat and the subrenal capsule assay using the immunodeficient athymic nude mouse were employed.\nIn the subcutaneous assay, tumor grafts are implanted subcutaneously and treatment can be initiated at any selected time after the implantation.\nIn this assay, 20 male Buffalo strain rats were implanted s.c., right flank, with a 2 mm^3 mince of the M5123 hepatoma in the a.m. of day zero. The animals were individually identified and then randomized 10 rats in the control and 5 rats per test group. […] Tumor sizes were determined with Vernier calipers twice weekly and size calculated as the average of two diameters (length+width/2) mm."}, "[2]": {"test_system": "M5123 hepatoma", "assay": "Subrenal capsule assay (SRCA), M5123 rat hepatoma xenografts in athymic female mice", "type": "in vivo, mouse", "conditions": "s.c., b.i.d., q.d. 1-9; for Change in Tumor Size between day 0 and day 10: mean ± s.e.m.", "excerpt": "as §1, §2\nSRCA was designed as a rapid in vivo method for testing chemotherapeutic agents against tumor xenografts prepared from solid malignancies. As an antitumor screening procedure, tumors, both human and murine, can be tested as xenografts in athymic female mice. For detailed description of this assay, see Bogden, A. E. et al. A rapid screening method for testing chemotherapeutic agents against human tumor xenografts. In: Proc. Symp. Use of Athymic (Nude) Mice in Cancer Research, p. 231, Edited by Houchens et al., Gustav Fisher, N.Y. (1978).\nFurther, an in situ determination of tumor xenograft size at time of implantation and again at termination of the assay, permits use of the very simple parameter of change in tumor size for evaluating tumor sensitivity to the analog. Since the initial measurement provides each xenograft with its own baseline for evaluating drug effects, one can measure tumor response to drugs in terms of progression, stabilization, partial remission and complete remission, which are parameters that have clinical relevance.\nIn this assay, xenografts prepared from the transplantation-established M5123 hepatoma were first implanted in immunodeficient athymic female mice, followed by treatment with BIM-23014, in assays of 10-day duration. Thirty two athymic female mice were implanted under the renal capsule with 1 mm cubed grafts of the M5123 rat hepatoma on day zero. Treatment with the analog was initiated on day one at 500, 250 and 50 μg per injection, s.c., b.i.d., on a q.d. 1-9 schedule. On day 10, the mice were sacrificed, the kidney was removed and the size of the tumor was measured to determine changes in tumor size between day 0 and day 10.\nMore specifically, the size of the tumor was measured in situ by means of a stereoscope, which was fitted with an ocular micrometer calibrated in ocular units (OMU, 10 OMU=1 mm). For each tumor, two perpendicular diameters were measured and the difference in mean tumor diameter over the 10-day period was calculated."}, "[3]": {"assay": "Body weight change (systemic toxicity) in the subcutaneous assay", "type": "in vivo, rat", "conditions": "for Final Body Weight/Initial Body Weight ratio: q.d. 0-15 (control 1.15)", "method": "In this assay, 20 male Buffalo strain rats were implanted s.c., right flank, with a 2 mm^3 mince of the M5123 hepatoma in the a.m. of day zero. The animals were individually identified and then randomized 10 rats in the control and 5 rats per test group. An somatostatin analog used in the invention, H-D-β-Nal-Cys-Tyr-D-Trp-Lys-Val-Cys-Thr-NH2 (code name: BIM-23014), was administered b.i.d. Monday through Friday, and as a single total daily dose on Saturday and Sunday. Tumor sizes were determined with Vernier calipers twice weekly and size calculated as the average of two diameters (length+width/2) mm.\nSince neoplasms maintain autonomous growth by autocrine and paracrine growth factors, the importance of attaining therapeutic concentrations of an antigrowth factor such as BIM-23014 at the tumor site is emphasized in this study. […] Control Final Body Weight/Initial Body Weight ratio was 1.15, as compared to 1.06 for group 2 and 1.12 for group 3."}},
  "data": [
    {"compound": "CC(C)[C@@H]1NC(=O)[C@H](CCCCN)NC(=O)[C@@H](Cc2c[nH]c3ccccc23)NC(=O)[C@H](Cc2ccc(O)cc2)NC(=O)[C@@H](NC(=O)[C@H](N)Cc2ccc3ccccc3c2)CSSC[C@@H](C(=O)N[C@H](C(N)=O)[C@@H](C)O)NC1=O", "note": "[BIM-23014, H-D-β-Nal-Cys-Tyr-D-Trp-Lys-Val-Cys-Thr-NH2]", "values": [
      {"measurement": "Final Tumor Size Day 15", "setting": "[1]; s.c. infusion (perilesional) b.i.d., q.d. 0-15", "result": "10.2 ± 5.6", "unit": "mm"},
      {"measurement": "Percent Test/Control", "setting": "[1]; s.c. infusion b.i.d., q.d. 0-15", "result": 62, "unit": "%"},
      {"measurement": "Final Tumor Size Day 15", "setting": "[1]; s.c., b.i.d., q.d. 0-15 (flank opposite from tumor)", "result": "16.8 ± 2.4", "unit": "mm"},
      {"measurement": "Percent Test/Control", "setting": "[1]; s.c., b.i.d., q.d. 0-15", "result": 102, "unit": "%"},
      {"measurement": "Tumor inhibitory effect (in words)", "setting": "[1]; s.c. on the flank opposite from the tumor, 500 μg/inj.", "result": "no tumor inhibitory effects"},
      {"measurement": "Growth of the M5123 hepatoma (in words)", "setting": "[1]; s.c. perilesional infusion, 500 μg/inj., p<0.01", "result": "significantly inhibited"},
      {"measurement": "% Test/Control", "setting": "[2]; 50 μg analog/inj.", "result": 93, "unit": "%"},
      {"measurement": "Change in Tumor Size between day 0 and day 10", "setting": "[2]; 50 μg analog/inj.", "result": "37.00 ± 1.80", "unit": "omu"},
      {"measurement": "Inhibition (antitumor activity)", "setting": "[2]; 50 μg", "result": 7, "unit": "%"},
      {"measurement": "% Test/Control", "setting": "[2]; 250 μg analog/inj.", "result": 77, "unit": "%"},
      {"measurement": "Change in Tumor Size between day 0 and day 10", "setting": "[2]; 250 μg analog/inj.", "result": "30.56 ± 3.61", "unit": "omu"},
      {"measurement": "Reduction in the growth of the tumor", "setting": "[2]; 250 μg/injection", "result": "about 25%"},
      {"measurement": "% Test/Control", "setting": "[2]; 500 μg analog/inj.", "result": 84, "unit": "%"},
      {"measurement": "Change in Tumor Size between day 0 and day 10", "setting": "[2]; 500 μg analog/inj.", "result": "33.38 ± 2.19", "unit": "omu"},
      {"measurement": "Inhibition (antitumor activity)", "setting": "[2]; 500 μg", "result": 16, "unit": "%"},
      {"measurement": "Systemic toxic effects from treatment as indicated by body weight loss (in words)", "setting": "[3]; 500 μg/inj., b.i.d., q.d. 0-15", "result": "no evidence of systemic toxic effects"},
      {"measurement": "Final Body Weight/Initial Body Weight ratio", "setting": "[3]; group 2: 500 μg/inj., s.c., b.i.d.", "result": 1.06},
      {"measurement": "Final Body Weight/Initial Body Weight ratio", "setting": "[3]; group 3: 500 μg/inj., s.c. infusion b.i.d.", "result": 1.12}
    ]}
  ]
}
